Activity calls are given as the source filed them. The rule behind the calls is not given here.

Test [1] concerns the target Mitogen-activated protein kinase kinase kinase 8 (Homo sapiens, UniProt P41279). Nature of the test: Inhibition of Tpl2 kinase by ELISA. A general note: An ELISA detects its analyte on a solid surface through an enzyme-linked reagent.
Test [2] relates to Monocyte. Nature of the test: Inhibition of LPS-induced TNFalpha production in human monocytes by ELISA. In kind it is functional.
For test [3], the system named is Blood. Description: Inhibition of LPS-induced TNFalpha production in human whole blood by ELISA. It counts as functional.
For test [4], the target named is CaM kinase II (Homo sapiens) (UniProt Q13557+Q13555+Q13554+Q9UQM7). Description: Inhibition of CAMK2. It counts as protein assay.
In test [5] the target is Protein kinase C (PKC) (Homo sapiens) (UniProt O94806+P41743+P17252+P05129+Q05655+P05771+Q05513+Q02156+P24723+Q15139+Q04759). Description: Inhibition of PKC. In kind it is protein assay.
The target in test [6] is Ribosomal protein S6 kinase beta-1 (Homo sapiens) (UniProt P23443). Description: Inhibition of S6 kinase.
Sequence of Ribosomal protein S6 kinase beta-1 (Homo sapiens) (P23443 whole entry, looked up): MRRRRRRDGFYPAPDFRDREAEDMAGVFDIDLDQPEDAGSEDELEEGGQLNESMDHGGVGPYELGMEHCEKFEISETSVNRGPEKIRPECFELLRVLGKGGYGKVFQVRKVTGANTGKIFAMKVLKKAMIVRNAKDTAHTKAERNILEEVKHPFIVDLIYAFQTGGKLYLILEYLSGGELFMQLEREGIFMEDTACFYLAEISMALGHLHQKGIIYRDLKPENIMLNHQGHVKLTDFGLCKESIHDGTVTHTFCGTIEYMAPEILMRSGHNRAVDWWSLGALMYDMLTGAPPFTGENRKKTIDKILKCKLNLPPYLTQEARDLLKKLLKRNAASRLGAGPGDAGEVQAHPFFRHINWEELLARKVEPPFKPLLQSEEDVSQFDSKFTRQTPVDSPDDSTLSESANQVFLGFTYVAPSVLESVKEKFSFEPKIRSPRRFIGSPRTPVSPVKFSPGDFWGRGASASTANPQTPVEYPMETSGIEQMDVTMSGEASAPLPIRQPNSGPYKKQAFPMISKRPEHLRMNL
The target in test [7] is MAP kinase-activated protein kinase 2 (Homo sapiens) (UniProt P49137). Nature of the test: Inhibition of MK2.
Sequence of MAP kinase-activated protein kinase 2 (Homo sapiens) (P49137 whole entry, looked up): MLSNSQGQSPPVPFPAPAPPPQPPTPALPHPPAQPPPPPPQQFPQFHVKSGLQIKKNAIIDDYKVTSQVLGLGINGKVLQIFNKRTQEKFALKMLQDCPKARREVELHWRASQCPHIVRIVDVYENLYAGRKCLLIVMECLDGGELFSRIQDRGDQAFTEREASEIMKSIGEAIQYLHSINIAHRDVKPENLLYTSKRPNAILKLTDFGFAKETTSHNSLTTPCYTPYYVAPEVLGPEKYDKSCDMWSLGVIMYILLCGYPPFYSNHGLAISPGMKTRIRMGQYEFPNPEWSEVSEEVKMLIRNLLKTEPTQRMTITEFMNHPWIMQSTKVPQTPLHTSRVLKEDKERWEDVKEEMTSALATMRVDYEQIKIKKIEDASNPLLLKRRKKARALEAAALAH
Test [8] deals with Monocyte. Nature of the test: Inhibition of p38 kinase phosphorylation in LPS-treated human monocytes. In kind it is functional.
For test [9], the system named is Monocyte. Description: Inhibition of cJun phosphorylation in LPS-treated human monocytes. It counts as functional.
Test [10] concerns Monocyte. Nature of the test: Inhibition of IkappaBalpha phosphorylation in LPS-treated human monocytes. It counts as functional.
Test [11] deals with Mus musculus. Description: Inhibition of LPS/D-gal-induced TNFalpha production in C57B1/6 mouse at 25 mg/kg, ip. In kind it is functional. The note with it: C57B1/6, ip, route intraperitoneal.
The test system of test [12] is Monocyte. Nature of the test: Inhibition of MK2 phosphorylation in LPS-treated human monocytes. In kind it is functional.
Test [13] addresses Dual specificity mitogen-activated protein kinase kinase 1 (Homo sapiens) (UniProt Q02750). Description: Inhibition of MEK.
The target in test [14] is Proto-oncogene tyrosine-protein kinase Src (Homo sapiens) (UniProt P12931). Description: Inhibition of Src kinase.
Sequence of Proto-oncogene tyrosine-protein kinase Src (Homo sapiens) (P12931 2-536 limits assumed): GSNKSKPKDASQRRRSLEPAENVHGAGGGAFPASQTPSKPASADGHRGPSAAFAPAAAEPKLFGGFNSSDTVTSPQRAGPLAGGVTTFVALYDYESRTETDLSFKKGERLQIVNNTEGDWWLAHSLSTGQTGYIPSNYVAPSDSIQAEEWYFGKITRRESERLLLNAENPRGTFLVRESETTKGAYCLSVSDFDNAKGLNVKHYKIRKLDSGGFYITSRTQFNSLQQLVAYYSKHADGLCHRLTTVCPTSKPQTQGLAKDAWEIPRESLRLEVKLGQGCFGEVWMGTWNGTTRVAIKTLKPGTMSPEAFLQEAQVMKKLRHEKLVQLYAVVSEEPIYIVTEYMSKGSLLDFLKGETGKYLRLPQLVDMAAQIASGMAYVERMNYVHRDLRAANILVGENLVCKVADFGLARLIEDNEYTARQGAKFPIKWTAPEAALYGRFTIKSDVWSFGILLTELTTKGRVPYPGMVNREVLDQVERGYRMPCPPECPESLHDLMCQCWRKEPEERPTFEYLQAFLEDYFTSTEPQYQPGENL
Test [15] concerns Mus musculus. Nature of the test: Inhibition of LPS/D-gal-induced TNFalpha production in C57B1/6 mouse at 50 mg/kg, ip. In kind it is functional. The note with it: C57B1/6, ip, route intraperitoneal.

Sequence of Mitogen-activated protein kinase kinase kinase 8 (P41279 whole entry): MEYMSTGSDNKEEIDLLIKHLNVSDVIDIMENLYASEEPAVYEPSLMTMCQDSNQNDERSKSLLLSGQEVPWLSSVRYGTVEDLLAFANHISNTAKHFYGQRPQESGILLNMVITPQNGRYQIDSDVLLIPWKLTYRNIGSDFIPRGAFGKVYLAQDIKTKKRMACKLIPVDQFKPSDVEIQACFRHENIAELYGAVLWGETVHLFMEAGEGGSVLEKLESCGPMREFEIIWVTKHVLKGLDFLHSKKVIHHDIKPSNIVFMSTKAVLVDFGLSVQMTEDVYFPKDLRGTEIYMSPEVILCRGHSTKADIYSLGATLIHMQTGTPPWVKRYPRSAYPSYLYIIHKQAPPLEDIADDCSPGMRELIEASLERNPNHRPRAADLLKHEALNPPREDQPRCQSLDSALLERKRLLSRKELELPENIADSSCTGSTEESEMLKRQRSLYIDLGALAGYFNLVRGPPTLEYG
Sequence of Dual specificity mitogen-activated protein kinase kinase 1 (Homo sapiens) (Q02750 whole entry): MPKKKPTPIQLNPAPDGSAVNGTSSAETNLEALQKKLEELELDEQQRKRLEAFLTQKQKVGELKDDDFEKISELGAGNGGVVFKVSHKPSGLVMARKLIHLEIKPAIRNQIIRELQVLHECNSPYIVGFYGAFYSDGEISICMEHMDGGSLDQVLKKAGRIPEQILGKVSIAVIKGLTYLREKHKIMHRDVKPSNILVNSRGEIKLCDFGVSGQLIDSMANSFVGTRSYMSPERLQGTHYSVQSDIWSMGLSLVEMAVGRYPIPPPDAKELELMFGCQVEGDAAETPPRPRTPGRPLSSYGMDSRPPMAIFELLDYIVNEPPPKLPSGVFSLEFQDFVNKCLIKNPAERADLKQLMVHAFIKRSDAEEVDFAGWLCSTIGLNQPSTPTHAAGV

`N#Cc1cnc2ccc(CCc3ccccc3)cc2c1Nc1ccc(F)c(Cl)c1`: the IC50 (in general, the concentration that gives 50% inhibition) in test [1] was > 10000 nM.

Consider `N#Cc1cnc2cc(OC(F)(F)F)c(NCc3cnc[nH]3)cc2c1Nc1ccc(F)c(Cl)c1`, for which the IC50 in test [1] is > 40000 nM.

As to `CCN1CCC[C@H]1CNc1ccc2ncc(C#N)c(Nc3ccc(F)c(Cl)c3)c2c1`, inhibition in test [1] was half-maximal at 180 nM (IC50).

With `N#Cc1c(Nc2ccc(F)c(Cl)c2)c2cc(NCc3cnc[nH]3)ccc2[nH]c1=O`, in test [1], the IC50 was > 40000 nM.

For the molecule `N#Cc1cnc2ccc(NCCN3CCOCC3)cc2c1Sc1ccc(F)c(Cl)c1`, the IC50 in test [1] is > 10000 nM.

Turning to `Cc1c(CNc2ccc3ncc(C#N)c(Nc4ccc(F)c(Cl)c4)c3c2)ncn1C`, the inhibitory concentration in test [2] turned out to be 0.4 µM; in test [3] it was 15.8 µM. This molecule displayed an IC50 in [1] of 3 nM.

Turning to `CCc1ncc(CNc2ccc3ncc(C#N)c(Nc4ccc(F)c(Cl)c4)c3c2)[nH]1`, the concentration for half-maximal inhibition (IC50) in [1] turned out to be 640 nM.

Consider `N#Cc1cnc2cnc(NCc3ccccc3)cc2c1Nc1ccc(F)c(Cl)c1`, for which the IC50 in test [1] was 140 nM.

Turning to `CC(C)Oc1cc2ncc(C#N)c(Nc3ccc(F)c(Cl)c3)c2cc1NCc1cnc[nH]1`, in test [1], the IC50 is > 40000 nM.

With `N#Cc1cnc2ccc(Nc3ccccc3)cc2c1Nc1ccc(F)c(Cl)c1`, the IC50 in test [1] is > 40000 nM.

With `N#Cc1cnc2ccc(NCc3nccs3)cc2c1Nc1ccc(F)c(Cl)c1`, the inhibitory concentration in [2] is 0.6 µM; in test [3] it was >20 µM.

Take `Cc1ncn(CCN2CCOCC2)c1CNc1ccc2ncc(C#N)c(Nc3ccc(F)c(Cl)c3)c2c1`: the inhibitory concentration in [2] was 0.7 µM; in test [3], 13.2 µM.

As for `N#Cc1cnc2ccc(NCc3ccccn3)cc2c1Nc1ccc(F)c(Cl)c1`, the IC50 in test [1] is 90 nM.

In test [1], `N#Cc1cnc2ccc(NCc3ccc(S(N)(=O)=O)cc3)cc2c1Nc1ccc(F)c(Cl)c1` came in with an IC50 of 110 nM.

As for `N#Cc1cnc2ccc(NS(=O)(=O)c3ccccc3)cc2c1Nc1ccc(F)c(Cl)c1`, half-maximal inhibition in test [1] (IC50) was put at 11500 nM.

`CCN1CCC[C@@H]1CNc1ccc2ncc(C#N)c(Nc3ccc(F)c(Cl)c3)c2c1`: the IC50 in test [1] was found to be 7000 nM.

In [1], `N#Cc1cnc2ccc(NCC3CCCO3)cc2c1Nc1ccc(F)c(Cl)c1` (stereo not drawn) yielded an IC50 of 2200 nM.

Turning to `N#Cc1cnc2ccc(NCc3c[nH]cn3)cc2c1Nc1ccc(F)c(Cl)c1`, the outcome in test [4], in test [7] and in [14] was inactive. Also, the Inhibition was > 10 µM in test [5]; > 10 µM in test [6]; 2.11 µM in test [8]; 5 µM in test [9]; >5 µM in test [10]; >5 µM in [12]. The inhibitory concentration in test [2] was determined as 0.46 µM; in test [3], 3.3 µM. The inhibition in vivo (usually the percentage by which the read-out fell short of the control) at 25 mg/kg in test [11] worked out at 70%. Moreover, in test [13], half-maximal inhibition (IC50) was put at 2400 nM.

In the case of `N#Cc1cnc2ccc(NCc3ccccc3)cc2c1Nc1ccc(F)c(Cl)c1`, the IC50 in test [1] came to 210 nM.

Turning to `N#Cc1cnc2ccc(NCC3CCCN3)cc2c1Nc1ccc(F)c(Cl)c1` (stereo not drawn), in [1], the IC50 was 30000 nM.

With `N#Cc1cccc(CNc2ccc3ncc(C#N)c(Nc4ccc(F)c(Cl)c4)c3c2)c1`, the IC50 in [1] was 100 nM.

In test [1], `CC(Nc1ccc2ncc(C#N)c(Nc3ccc(F)c(Cl)c3)c2c1)c1ccccn1` (stereo not drawn) came in with an IC50 of 60 nM.

`N#Cc1cnc2ccc(NCCN3CCOCC3)cc2c1Oc1ccc(F)c(Cl)c1`: in test [1], the IC50 is > 40000 nM.

As for `Cc1[nH]cnc1CNc1ccc2ncc(C#N)c(Nc3ccc(F)c(Cl)c3)c2c1`, the inhibitory concentration in test [2] is 0.4 µM; in test [3], 7.9 µM. In addition, in test [15], the inhibition in vivo at 50 mg/kg is 84%. In [1], this molecule returned an IC50 of 3 nM.

On to `N#Cc1cnc2ccc(NCc3cccc[n+]3[O-])cc2c1Nc1ccc(F)c(Cl)c1`, for which the figures for the inhibitory concentration in test [2] and in test [3] were 1.7 µM and 7.8 µM, respectively. In test [15], this molecule displayed an inhibition in vivo at 50 mg/kg of 54%. In test [1], this molecule gave an IC50 of 11 nM.

In test [1], `Cc1nc2ccc(NCc3cnc[nH]3)cc2c(Nc2ccc(F)c(Cl)c2)c1C#N` gave an IC50 of 19000 nM.

For the origin of these results see ChEMBL document CHEMBL1139739, “Inhibition of Tpl2 kinase and TNFalpha production with quinoline-3-carbonitriles for the treatment of rheumatoid arthritis” (Bioorg Med Chem Lett, 2006).
